Laboratory results as given in PMC8800111 (The Journal of Biological Chemistry, 2021).

Key:
Assay type in all cases: cell-based
[1] = target: proteins of U3A human fibrosarcoma cells (4462 proteins detected) (Homo sapiens, UniProt O00487); details: protein PSMD14; U3A cells
[2] = target: proteins of U3A human fibrosarcoma cells (4462 proteins detected) (Homo sapiens, UniProt O15164); details: protein TRIM24; U3A cells
[3] = target: proteins of U3A human fibrosarcoma cells (4462 proteins detected) (Homo sapiens, UniProt O75367); details: protein H2AFY; U3A, 10 μM, 2 h
[4] = target: proteins of U3A human fibrosarcoma cells (4462 proteins detected) (Homo sapiens, UniProt P23919); details: protein DTYMK; U3A cells
[5] = target: proteins of U3A human fibrosarcoma cells (4462 proteins detected) (Homo sapiens, UniProt P24666); details: protein ACP1, U3A cells
proteins of U3A human fibrosarcoma cells (4462 proteins detected) (Homo sapiens, UniProt P24666), sequence (P24666 whole entry): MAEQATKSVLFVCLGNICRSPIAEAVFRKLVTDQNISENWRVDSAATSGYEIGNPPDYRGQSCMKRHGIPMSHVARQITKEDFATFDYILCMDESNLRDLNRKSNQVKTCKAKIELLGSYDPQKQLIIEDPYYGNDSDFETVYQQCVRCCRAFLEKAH

[6] = target: proteins of U3A human fibrosarcoma cells (4462 proteins detected) (Homo sapiens, UniProt P27694); details: protein RPA1; U3A cells
proteins of U3A human fibrosarcoma cells (4462 proteins detected) (Homo sapiens, UniProt P27694), sequence (P27694 whole entry): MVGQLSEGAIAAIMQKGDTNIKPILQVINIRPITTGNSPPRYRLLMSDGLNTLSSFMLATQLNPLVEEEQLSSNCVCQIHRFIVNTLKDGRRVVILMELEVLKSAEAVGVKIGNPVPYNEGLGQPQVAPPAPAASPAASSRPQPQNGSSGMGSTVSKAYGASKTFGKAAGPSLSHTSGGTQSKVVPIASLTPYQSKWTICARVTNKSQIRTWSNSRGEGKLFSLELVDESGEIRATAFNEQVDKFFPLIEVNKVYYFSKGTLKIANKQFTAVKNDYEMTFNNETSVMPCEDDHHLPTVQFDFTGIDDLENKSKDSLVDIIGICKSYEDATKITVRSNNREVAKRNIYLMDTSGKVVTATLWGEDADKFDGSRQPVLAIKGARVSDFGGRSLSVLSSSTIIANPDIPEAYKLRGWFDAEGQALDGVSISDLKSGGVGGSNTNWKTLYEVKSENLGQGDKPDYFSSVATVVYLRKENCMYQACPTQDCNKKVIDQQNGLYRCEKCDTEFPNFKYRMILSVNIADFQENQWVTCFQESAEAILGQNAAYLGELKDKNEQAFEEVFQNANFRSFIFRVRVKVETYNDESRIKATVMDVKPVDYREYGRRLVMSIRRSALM

[7] = target: proteins of U3A human fibrosarcoma cells (4462 proteins detected) (Homo sapiens, UniProt P50281); details: protein MMP14; U3A cells
[8] = target: proteins of U3A human fibrosarcoma cells (4462 proteins detected) (Homo sapiens, UniProt P52294); details: protein KPNA1; U3A cells
proteins of U3A human fibrosarcoma cells (4462 proteins detected) (Homo sapiens, UniProt P52294), sequence (P52294 whole entry): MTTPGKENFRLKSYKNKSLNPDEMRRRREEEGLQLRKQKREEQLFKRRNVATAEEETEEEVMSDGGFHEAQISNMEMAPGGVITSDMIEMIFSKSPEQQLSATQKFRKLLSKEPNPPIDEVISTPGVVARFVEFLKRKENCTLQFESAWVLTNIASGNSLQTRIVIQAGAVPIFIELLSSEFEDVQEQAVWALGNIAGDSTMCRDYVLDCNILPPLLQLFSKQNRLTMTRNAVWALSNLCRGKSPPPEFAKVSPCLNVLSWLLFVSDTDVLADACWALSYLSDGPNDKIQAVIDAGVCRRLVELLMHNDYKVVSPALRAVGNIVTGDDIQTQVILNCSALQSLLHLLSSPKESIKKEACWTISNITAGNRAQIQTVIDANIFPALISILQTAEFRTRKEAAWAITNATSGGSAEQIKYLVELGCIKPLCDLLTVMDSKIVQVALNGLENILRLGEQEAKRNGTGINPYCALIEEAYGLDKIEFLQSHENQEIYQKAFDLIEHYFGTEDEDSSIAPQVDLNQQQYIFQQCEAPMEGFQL

[9] = target: proteins of U3A human fibrosarcoma cells (4462 proteins detected) (Homo sapiens, UniProt Q04721); details: protein NOTCH2, U3A cells
[10] = target: proteins of U3A human fibrosarcoma cells (4462 proteins detected) (Homo sapiens, UniProt Q14974); details: protein KPNB1; soluble abundance after heat, U3A cells
[11] = target: proteins of U3A human fibrosarcoma cells (4462 proteins detected) (Homo sapiens, UniProt Q15149); details: protein PLEC; soluble abundance after heat, U3A cells
[12] = target: proteins of U3A human fibrosarcoma cells (4462 proteins detected) (Homo sapiens, UniProt Q3B726); details: protein TWISTNB; U3A cells
[13] = target: proteins of U3A human fibrosarcoma cells (4462 proteins detected) (Homo sapiens, UniProt Q658Y4); details: protein FAM91A1; soluble abundance after heat, U3A cells
[14] = target: proteins of U3A human fibrosarcoma cells (4462 proteins detected) (Homo sapiens, UniProt Q86TU7); details: protein SETD3; U3A cells
[15] = target: proteins of U3A human fibrosarcoma cells (4462 proteins detected) (Homo sapiens, UniProt Q8IW35); details: protein CEP97; U3A, 10 μM, 2 h
[16] = target: proteins of U3A human fibrosarcoma cells (4462 proteins detected) (Homo sapiens, UniProt Q8NCA5); details: protein FAM98A; U3A cells
[17] = target: proteins of U3A human fibrosarcoma cells (4462 proteins detected) (Homo sapiens, UniProt Q8WTT2); details: protein NOC3L; U3A cells
[18] = target: proteins of U3A human fibrosarcoma cells (4462 proteins detected) (Homo sapiens, UniProt Q8WUA7); details: protein TBC1D22A; soluble abundance after heat, U3A cells
proteins of U3A human fibrosarcoma cells (4462 proteins detected) (Homo sapiens, UniProt Q8WUA7), sequence (Q8WUA7 whole entry): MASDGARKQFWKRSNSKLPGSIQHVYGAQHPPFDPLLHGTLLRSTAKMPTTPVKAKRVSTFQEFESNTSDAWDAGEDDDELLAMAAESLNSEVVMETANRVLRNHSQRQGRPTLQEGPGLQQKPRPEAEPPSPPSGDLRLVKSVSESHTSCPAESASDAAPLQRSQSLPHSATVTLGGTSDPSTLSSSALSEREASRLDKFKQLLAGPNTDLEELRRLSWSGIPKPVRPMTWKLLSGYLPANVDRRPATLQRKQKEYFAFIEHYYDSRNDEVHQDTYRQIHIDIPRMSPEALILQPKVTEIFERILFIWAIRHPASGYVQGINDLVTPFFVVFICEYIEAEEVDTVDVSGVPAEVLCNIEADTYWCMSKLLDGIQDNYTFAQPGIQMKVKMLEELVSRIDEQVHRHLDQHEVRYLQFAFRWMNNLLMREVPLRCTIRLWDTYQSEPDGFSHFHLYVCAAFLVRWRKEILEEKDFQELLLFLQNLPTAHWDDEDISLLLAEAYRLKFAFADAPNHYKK

[19] = target: proteins of U3A human fibrosarcoma cells (4462 proteins detected) (Homo sapiens, UniProt Q92688); details: protein ANP32B, U3A cells
proteins of U3A human fibrosarcoma cells (4462 proteins detected) (Homo sapiens, UniProt Q92688), sequence (Q92688 whole entry): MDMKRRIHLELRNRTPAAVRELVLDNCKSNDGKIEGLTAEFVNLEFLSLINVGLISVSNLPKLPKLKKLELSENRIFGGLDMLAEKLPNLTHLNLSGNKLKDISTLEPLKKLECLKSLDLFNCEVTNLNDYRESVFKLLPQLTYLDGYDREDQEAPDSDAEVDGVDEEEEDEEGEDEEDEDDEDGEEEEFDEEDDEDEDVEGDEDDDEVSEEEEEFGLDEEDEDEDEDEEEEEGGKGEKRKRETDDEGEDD

[20] = target: proteins of U3A human fibrosarcoma cells (4462 proteins detected) (Homo sapiens, UniProt Q96A26); details: protein FAM162A; U3A, 10 μM, 2 h
proteins of U3A human fibrosarcoma cells (4462 proteins detected) (Homo sapiens, UniProt Q96A26), sequence (Q96A26 whole entry): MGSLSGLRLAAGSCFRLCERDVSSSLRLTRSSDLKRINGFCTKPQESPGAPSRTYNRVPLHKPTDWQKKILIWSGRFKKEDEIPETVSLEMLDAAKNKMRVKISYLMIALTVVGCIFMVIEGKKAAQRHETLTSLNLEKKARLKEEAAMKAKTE

[21] = target: proteins of U3A human fibrosarcoma cells (4462 proteins detected) (Homo sapiens, UniProt Q96AT1); details: protein KIAA1143; U3A, 10 μM, 2 h
proteins of U3A human fibrosarcoma cells (4462 proteins detected) (Homo sapiens, UniProt Q96AT1), sequence (Q96AT1 whole entry): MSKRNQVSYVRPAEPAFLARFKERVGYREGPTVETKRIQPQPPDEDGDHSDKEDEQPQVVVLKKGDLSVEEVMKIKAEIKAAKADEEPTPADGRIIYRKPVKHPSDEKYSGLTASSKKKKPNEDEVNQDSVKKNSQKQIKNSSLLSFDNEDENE

[22] = target: proteins of U3A human fibrosarcoma cells (4462 proteins detected) (Homo sapiens, UniProt Q96FF9); details: protein CDCA5; U3A cells
[23] = target: proteins of U3A human fibrosarcoma cells (4462 proteins detected) (Homo sapiens, UniProt Q96GM5); details: protein SMARCD1; U3A cells
proteins of U3A human fibrosarcoma cells (4462 proteins detected) (Homo sapiens, UniProt Q96GM5), sequence (Q96GM5 whole entry): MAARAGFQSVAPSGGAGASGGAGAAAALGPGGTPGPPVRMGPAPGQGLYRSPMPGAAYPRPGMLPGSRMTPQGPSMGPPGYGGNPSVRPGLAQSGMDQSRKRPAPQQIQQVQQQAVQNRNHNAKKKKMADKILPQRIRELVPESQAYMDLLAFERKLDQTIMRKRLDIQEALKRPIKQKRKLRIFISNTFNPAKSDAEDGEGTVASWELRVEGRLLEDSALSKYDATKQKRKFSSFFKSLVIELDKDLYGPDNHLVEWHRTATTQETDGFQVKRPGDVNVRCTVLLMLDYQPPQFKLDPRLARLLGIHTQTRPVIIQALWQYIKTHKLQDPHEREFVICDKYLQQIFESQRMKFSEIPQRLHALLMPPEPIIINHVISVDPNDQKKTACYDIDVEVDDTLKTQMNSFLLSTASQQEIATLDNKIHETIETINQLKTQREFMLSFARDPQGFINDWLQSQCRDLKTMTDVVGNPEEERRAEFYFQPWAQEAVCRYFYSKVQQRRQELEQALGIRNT

[24] = target: proteins of U3A human fibrosarcoma cells (4462 proteins detected) (Homo sapiens, UniProt Q99873); details: protein PRMT1, U3A cells
[25] = target: proteins of U3A human fibrosarcoma cells (4462 proteins detected) (Homo sapiens, UniProt Q9BZJ0); details: protein CRNKL1; U3A cells
[26] = target: proteins of U3A human fibrosarcoma cells (4462 proteins detected) (Homo sapiens, UniProt Q9NRL3); details: protein STRN4; U3A cells
[27] = target: proteins of U3A human fibrosarcoma cells (4462 proteins detected) (Homo sapiens, UniProt Q9NVR0); details: protein KLHL11; U3A cells
proteins of U3A human fibrosarcoma cells (4462 proteins detected) (Homo sapiens, UniProt Q9NVR0), sequence (Q9NVR0 16-708): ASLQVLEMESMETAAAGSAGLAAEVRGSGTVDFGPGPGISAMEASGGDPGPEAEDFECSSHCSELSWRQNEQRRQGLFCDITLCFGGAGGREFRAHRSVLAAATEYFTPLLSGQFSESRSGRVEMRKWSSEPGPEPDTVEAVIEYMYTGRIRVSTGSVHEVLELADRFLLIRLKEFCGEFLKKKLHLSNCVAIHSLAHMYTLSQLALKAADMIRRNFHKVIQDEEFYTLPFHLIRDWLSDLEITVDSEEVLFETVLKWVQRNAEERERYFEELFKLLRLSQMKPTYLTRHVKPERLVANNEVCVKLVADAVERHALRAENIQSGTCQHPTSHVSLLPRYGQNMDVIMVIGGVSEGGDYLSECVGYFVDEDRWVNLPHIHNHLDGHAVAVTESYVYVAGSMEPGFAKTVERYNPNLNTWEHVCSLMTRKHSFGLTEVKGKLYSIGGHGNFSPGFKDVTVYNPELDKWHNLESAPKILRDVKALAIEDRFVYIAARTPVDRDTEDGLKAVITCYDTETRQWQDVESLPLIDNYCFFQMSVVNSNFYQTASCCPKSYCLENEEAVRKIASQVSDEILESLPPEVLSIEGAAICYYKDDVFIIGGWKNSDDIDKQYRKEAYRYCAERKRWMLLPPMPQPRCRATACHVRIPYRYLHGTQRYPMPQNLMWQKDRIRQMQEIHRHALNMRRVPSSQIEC

[28] = target: proteins of U3A human fibrosarcoma cells (4462 proteins detected) (Homo sapiens, UniProt Q9UHL4); details: protein DPP7; U3A cells
[29] = target: proteins of U3A human fibrosarcoma cells (4462 proteins detected) (Homo sapiens, UniProt Q9Y2K1); details: protein ZBTB1; U3A cells
proteins of U3A human fibrosarcoma cells (4462 proteins detected) (Homo sapiens, UniProt Q9Y2K1), sequence (Q9Y2K1 whole entry): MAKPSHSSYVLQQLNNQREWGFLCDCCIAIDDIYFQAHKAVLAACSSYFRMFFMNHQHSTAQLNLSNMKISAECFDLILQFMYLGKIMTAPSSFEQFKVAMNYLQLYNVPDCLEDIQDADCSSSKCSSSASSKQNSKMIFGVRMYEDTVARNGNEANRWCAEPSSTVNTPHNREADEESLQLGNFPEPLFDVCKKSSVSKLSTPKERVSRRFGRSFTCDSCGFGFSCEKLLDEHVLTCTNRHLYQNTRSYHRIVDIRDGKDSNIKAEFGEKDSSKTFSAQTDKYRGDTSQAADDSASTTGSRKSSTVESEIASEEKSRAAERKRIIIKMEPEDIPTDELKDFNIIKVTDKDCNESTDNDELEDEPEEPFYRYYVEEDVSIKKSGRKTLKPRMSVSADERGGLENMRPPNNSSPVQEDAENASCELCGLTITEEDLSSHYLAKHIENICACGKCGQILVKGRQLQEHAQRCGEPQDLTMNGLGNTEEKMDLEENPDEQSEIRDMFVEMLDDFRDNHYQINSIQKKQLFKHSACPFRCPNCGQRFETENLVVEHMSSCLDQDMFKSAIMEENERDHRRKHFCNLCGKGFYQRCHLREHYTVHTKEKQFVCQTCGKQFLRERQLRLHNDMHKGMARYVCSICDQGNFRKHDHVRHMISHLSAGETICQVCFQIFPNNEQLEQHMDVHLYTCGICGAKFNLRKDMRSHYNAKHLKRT

[30] = target: proteins of U3A human fibrosarcoma cells (4462 proteins detected) (Homo sapiens, UniProt Q9Y385); details: protein UBE2J1; U3A cells
proteins of U3A human fibrosarcoma cells (4462 proteins detected) (Homo sapiens, UniProt Q9Y385), sequence (Q9Y385 whole entry): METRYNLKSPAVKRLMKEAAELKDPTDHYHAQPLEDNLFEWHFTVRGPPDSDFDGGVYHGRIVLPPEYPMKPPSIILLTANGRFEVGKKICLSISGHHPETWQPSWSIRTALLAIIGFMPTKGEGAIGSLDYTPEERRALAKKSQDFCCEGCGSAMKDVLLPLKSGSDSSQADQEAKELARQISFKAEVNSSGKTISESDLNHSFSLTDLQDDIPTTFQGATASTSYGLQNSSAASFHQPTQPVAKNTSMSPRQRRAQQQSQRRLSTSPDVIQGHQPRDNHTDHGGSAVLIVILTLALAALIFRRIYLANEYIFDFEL

proteins of U3A human fibrosarcoma cells (4462 proteins detected) (Homo sapiens, UniProt O00487), sequence (O00487 whole entry): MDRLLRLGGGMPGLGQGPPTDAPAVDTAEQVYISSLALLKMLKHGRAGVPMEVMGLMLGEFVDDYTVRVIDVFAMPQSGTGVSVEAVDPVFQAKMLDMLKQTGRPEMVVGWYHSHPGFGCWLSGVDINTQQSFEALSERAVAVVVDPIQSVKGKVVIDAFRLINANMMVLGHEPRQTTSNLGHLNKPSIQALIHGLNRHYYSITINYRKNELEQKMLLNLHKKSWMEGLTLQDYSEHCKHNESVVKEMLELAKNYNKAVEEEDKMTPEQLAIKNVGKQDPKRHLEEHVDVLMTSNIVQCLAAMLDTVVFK

## CCc1nc(N)nc(N)c1-c1ccc(Cl)cc1 [pyrimethamine]
[1]
  Log2 (PYR/DMSO): 0.17
[2]
  Log2 (PYR/DMSO): 0.16
[3]
  Log2 (PYR/DMSO), H2AFY: 0.33
[4]
  Log2 (PYR/DMSO): 0.20
[5]
  Log2 (PYR/DMSO): -0.04
[6]
  Log2 (PYR/DMSO): 0.16
[7]
  Log2 (PYR/DMSO): 0.19
[8]
  Log2 (PYR/DMSO): 0.17
[9]
  Log2 (PYR/DMSO): -0.04
[10]
  Log2 (PYR/DMSO): 0.14
[11]
  Log2 (PYR/DMSO): 0.14
[12]
  Log2 (PYR/DMSO): 0.16
[13]
  Log2 (PYR/DMSO): 0.14
[14]
  Log2 (PYR/DMSO): 0.20
[15]
  Log2 (PYR/DMSO), CEP97: -0.20
[16]
  Log2 (PYR/DMSO): 0.24
[17]
  Log2 (PYR/DMSO): 0.16
[18]
  Log2 (PYR/DMSO): 0.15
[19]
  Log2 (PYR/DMSO): -0.03
[20]
  Log2 (PYR/DMSO), FAM162A: -0.37
[21]
  Log2 (PYR/DMSO), KIAA1143: -0.16
[22]
  Log2 (PYR/DMSO): 0.19
[23]
  Log2 (PYR/DMSO): 0.17
[24]
  Log2 (PYR/DMSO): -0.05
[25]
  Log2 (PYR/DMSO): 0.16
[26]
  Log2 (PYR/DMSO): 0.16
[27]
  Log2 (PYR/DMSO): 0.18
[28]
  Log2 (PYR/DMSO): 0.22
[29]
  Log2 (PYR/DMSO): 0.22
[30]
  Log2 (PYR/DMSO): 0.22
